Measured values: patent publication US4808587A, “5-substituted pyrido[2,3-d]pyrimidine-2,4-diones” (Nippon Zoki Pharmaceutical Co., Ltd., priority 1986, dated 1989)

Key:
[1] = Acute toxicity test (oral, LD50); conditions: mouse, in vivo
Method: The test compounds were orally administered to groups of 5 ICR-strain male mice. LD50 value of the compound of the present invention was calculated by the LitchfieldWilcoxon's method based on mortality for 14 days after drug administration.

[2] = tested on: PCA (Passive Cutaneous Anaphylaxis) reaction; assay: Anti-allergic effect: PCA (Passive Cutaneous Anaphylaxis) reaction in rats; assay type: in vivo, Wister-strain male rats; conditions: Rattus norvegicus, oral, 1 hour before antigen challenge, dye leakage at 620 nm
Method: PCA (Passive Cutaneous Anaphylaxis) reaction in rats was taken as an index to an anti-allergic effect of the compound of the present invention.
In order to perform sensitization, anti-DNP-Asc (dinitrophenylated Ascaris extracts) serum diluted with saline was injected intradermally at 4 sites on the shaved back of groups of 6 Wister-strain male rats (6 weeks of age). 1 hour after oral administration of the test drug, the mixture of equivalent amount of DNP-Asc (5 mg/ml) and 2% Evans blue were intravenously injected to generate PCA reaction. 30 minutes thereafter, rats were killed by decapitation and exsanguinated. The skin was opened in order to evaluate the leakage of blue dye. The obtained skin was dissolved in 2N potassium hydroxide, then 2N phosphoric acid and acetone were added thereto. The amount of dye was determined by measurement of absorbance at 620 nm after centrifugation.

SMILES	LD50 at 336 h [1]	inhibition in vivo at 20 mg/kg [2]
CCn1c(=O)c2c(N)ccnc2n(CC)c1=O [Compound 5, 5-amino-1,3-diethylpyrido[2,3-d]pyrimidine-2,4-dione]	> 1000 mg/kg	79.2%
Cn1c(=O)c2c(NO)ccnc2n(C)c1=O [Compound 11, 5-hydroxyamino-1,3-dimethylpyrido[2,3-d]pyrimidine-2,4-dione]	> 1000 mg/kg	74%
C=CCNc1ccnc2c1c(=O)n(C)c(=O)n2C [Compound 9, 5-allylamino-1,3-dimethylpyrido[2,3-d]pyrimidine-2,4-dione]	> 1000 mg/kg	67.9%
Cn1c(=O)c2ccc(N)nc2n(C)c1=O [Compound 15, 7-amino-1,3-dimethylpyrido[2,3-d]pyrimidine-2,4-dione]	> 1200 mg/kg	68.7%
CC(C)Nc1ccnc2c1c(=O)n(C)c(=O)n2C [Compound 10, 5-isopropylamino-1,3-dimethylpyrido[2,3-d]pyrimidine-2,4-dione]	850 mg/kg	86.6%
Cn1c(=O)c2cc(N)cnc2n(C)c1=O [Compound 17, 6-amino-1,3-dimethylpyrido[2,3-d]pyrimidine-2,4-dione]		56.2%
Cn1c(=O)c2[nH]cnc2n(C)c1=O [Theophylline, reference compound]		57.9%
Cn1c(=O)c2c(N)ccnc2n(C)c1=O [Compound 4, 5-amino-1,3-dimethylpyrido[2,3-d]pyrimidine-2,4-dione]	850 mg/kg	68.7%
CNc1ccnc2c1c(=O)n(C)c(=O)n2C [Compound 7, 5-methylamino-1,3-dimethylpyrido[2,3-d]pyrimidine-2,4-dione]	1050 mg/kg	73.7%
Cn1c(=O)c2cccnc2n(C)c1=O [Compound 2, 1,3-dimethylpyrido[2,3-d]pyrimidine-2,4-dione]		51.2%
Cn1c(=O)c2c(O)ccnc2n(C)c1=O [Compound 14, 5-hydroxy1,3-dimethylpyrido[2,3-d]pyrimidine-2,4-dione]		49.9%
CCn1c(=O)c2c(NC)ccnc2n(CC)c1=O [Compound 8, 5-methylamino-1,3-diethylpyrido[2,3-d]pyrimidine-2,4-dione]		76.4%
